Consider 1 compound from ChEMBL document CHEMBL1641548, “Fused bicyclic derivatives of 2,4-diaminopyrimidine as c-Met inhibitors” (Bioorg Med Chem Lett, 2011).

Type in all cases: ADME, organism-based
A short description of series [1]: AUC (0 to infinity) in rat at 1 mg/kg, iv. The arrangement: time infinity, dose 1 mg/kg, route intravenous. Conditions: plasma.
Series [2] in a line: AUC (0 to infinity) in rat at 5 mg/kg, po. More on the design: time infinity, dose 5 mg/kg, route oral. Conditions: plasma.
The nature of series [3]: Oral bioavailability in rat at 5 mg/kg, po. The following applies: in vivo.
A short description of series [4]: Clearance in rat at 1 mg/kg, iv. The arrangement: dose 1 mg/kg, route intravenous. The following applies: in vivo.
Series [5] can be described thus: Half life in rat at 1 mg/kg, iv. The following applies: in vivo. More on the design: dose 1 mg/kg, route intravenous.

`CNC(=O)c1cccc(F)c1Nc1nc(Nc2ccc3c(c2)NC(=O)CCC3)ncc1Cl`: the AUC(0-inf) in series [1] came to 1260 ng·h/mL; in series [2] it was 592 ng·h/mL. Moreover, in series [3], the bioavailability stood at 8%. For the same compound, in series [4], the clearance is 15 mL/min/kg. In series [5], this compound showed a half-life of 42 min.

A word on the AUC(0-inf): it is total exposure, with the tail of the curve extrapolated. What is called bioavailability is the share of a dose that reaches the circulation, judged against a reference dose that is usually intravenous. Read a high bioavailability as much systemic uptake. The clearance is the rate of elimination divided by the concentration. A higher clearance goes with efficient removal. By half-life is commonly meant the time needed for the level to fall by half in the phase considered.
